Read-outs that look alike come from different tables or passages of the source.
Tests used:
[1] = system: barnyardgrass (Echinochloa crus-galli); experiment: Test G Post-Emergence Protocol; type: in vivo; details: Echinochloa crus-galli, post-emergence, 312 h; for pest or weed control at 15.625 g/ha: 15.625 g ai/ha, evaluated after 13 days (100=total damage to plant; 0=no damage to plant), read-out: Barnyardgrass damage rating; for pest or weed control at 62.5 g/ha: 62.5 g ai/ha, read-out: Barnyardgrass damage rating (100=total damage to plant; 0=no damage to plant); for pest or weed control at 62.5 g/ha / pest or weed control at 250 g/ha: evaluated after 13 days; for pest or weed control at 250 g/ha: 250 g ai/ha, read-out: damage to plant, Barnyardgrass (100=total damage to plant; 0=no damage to plant)
In short: (§1)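 Post-emergence herbicidal damage, scored visually 0–100 at 13 days. Application at 15.625, 62.5 or 250 g/ha onto 8-day-old plants grown under glasshouse control.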

[2] = system: corn (Zea mays); experiment: Test G Post-Emergence Protocol; type: in vivo; details: Zea mays, post-emergence, 312 h; for plant injury at 15.625 g/ha: 15.625 g ai/ha, evaluated after 13 days (100=total damage to plant; 0=no damage to plant), read-out: Corn damage rating; for plant injury at 62.5 g/ha: 62.5 g ai/ha, read-out: Corn damage rating (100=total damage to plant; 0=no damage to plant); for plant injury at 62.5 g/ha / plant injury at 250 g/ha: evaluated after 13 days; for plant injury at 250 g/ha: 250 g ai/ha, read-out: damage to plant, Corn (100=total damage to plant; 0=no damage to plant)
In short: as §1

[3] = system: giant foxtail (Setaria faberi); experiment: Test G Post-Emergence Protocol; type: in vivo; details: Setaria faberi, post-emergence, 312 h; for pest or weed control at 15.625 g/ha: 15.625 g ai/ha, evaluated after 13 days (100=total damage to plant; 0=no damage to plant), read-out: Foxtail, Giant damage rating; for pest or weed control at 62.5 g/ha: 62.5 g ai/ha, read-out: Foxtail, Giant damage rating (100=total damage to plant; 0=no damage to plant); for pest or weed control at 62.5 g/ha / pest or weed control at 250 g/ha: evaluated after 13 days; for pest or weed control at 250 g/ha: 250 g ai/ha, read-out: damage to plant, Foxtail, Giant (100=total damage to plant; 0=no damage to plant)
In short: as §1

[4] = system: ivy-leaved morning glory (Ipomoea hederacea); experiment: Test G Post-Emergence Protocol; type: in vivo; details: Ipomoea, post-emergence, 312 h; for pest or weed control at 15.625 g/ha: 15.625 g ai/ha, evaluated after 13 days (100=total damage to plant; 0=no damage to plant), read-out: Morningglory, Ivy-leaved damage rating; for pest or weed control at 62.5 g/ha: 62.5 g ai/ha, read-out: Morningglory, Ivy-leaved damage rating (100=total damage to plant; 0=no damage to plant); for pest or weed control at 62.5 g/ha / pest or weed control at 250 g/ha: evaluated after 13 days; for pest or weed control at 250 g/ha: 250 g ai/ha, read-out: damage to plant, Morningglory, Ivy-leaved (100=total damage to plant; 0=no damage to plant)
In short: as §1

[5] = system: redroot pigweed (Amaranthus retroflexus); experiment: Test G Post-Emergence Protocol; type: in vivo; details: Amaranthus retroflexus, post-emergence, 312 h; for pest or weed control at 15.625 g/ha: 15.625 g ai/ha, evaluated after 13 days (100=total damage to plant; 0=no damage to plant), read-out: Pigweed, Redroot damage rating; for pest or weed control at 62.5 g/ha: 62.5 g ai/ha, read-out: Pigweed, Redroot damage rating (100=total damage to plant; 0=no damage to plant); for pest or weed control at 62.5 g/ha / pest or weed control at 250 g/ha: evaluated after 13 days; for pest or weed control at 250 g/ha: 250 g ai/ha, read-out: damage to plant, Pigweed, Redroot (100=total damage to plant; 0=no damage to plant)
In short: as §1

[6] = system: velvetleaf (Abutilon theophrasti); experiment: Test G Post-Emergence Protocol; type: in vivo; details: Abutilon theophrasti, post-emergence, 312 h; for pest or weed control at 15.625 g/ha: 15.625 g ai/ha, evaluated after 13 days (100=total damage to plant; 0=no damage to plant), read-out: Velvetleaf damage rating; for pest or weed control at 62.5 g/ha: 62.5 g ai/ha, read-out: Velvetleaf damage rating (100=total damage to plant; 0=no damage to plant); for pest or weed control at 62.5 g/ha / pest or weed control at 250 g/ha: evaluated after 13 days; for pest or weed control at 250 g/ha: 250 g ai/ha, read-out: damage to plant, Velvetleaf (100=total damage to plant; 0=no damage to plant)
In short: as §1

[7] = system: barnyardgrass (Echinochloa crus-galli); experiment: Test A preemergence; type: in vivo; details: Echinochloa crus-galli, pre-emergence, 240 h, read-out: Plant response rating, Barnyardgrass; for pest or weed control at 500 g/ha: 500 g ai/ha; for pest or weed control at 125 g/ha: 125 g ai/ha
In short: (§2)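 Visual injury scores from 0, no effect, to 100, complete control, were assigned versus untreated controls roughly 10 d after treatment in the greenhouse. Test chemicals, formulated with surfactant in a non-phytotoxic solvent, were applied to planted seeds as a preemergence soil spray or postemergence to one- to two-leaf plants 2 to 10 cm tall, in loam–sand soil.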

[8] = system: giant foxtail (Setaria faberii); experiment: Test A preemergence; type: in vivo; details: Setaria faberi, pre-emergence, 240 h, read-out: Plant response rating, Foxtail, Giant; for pest or weed control at 500 g/ha: 500 g ai/ha; for pest or weed control at 125 g/ha: 125 g ai/ha
In short: as §2

[9] = system: pigweed (Amaranthus retroflexus); experiment: Test A preemergence; type: in vivo; details: Amaranthus retroflexus, pre-emergence, 240 h, read-out: Plant response rating, Pigweed; for pest or weed control at 500 g/ha: 500 g ai/ha; for pest or weed control at 125 g/ha: 125 g ai/ha
[10] = system: ragweed (common ragweed, Ambrosia elatior); experiment: Test A preemergence; type: in vivo; details: Ambrosia artemisiifolia, pre-emergence, 240 h, preemergence, read-out: Plant response rating, Ragweed
In short: as §2

[11] = system: ryegrass, Italian (Italian ryegrass, Lolium multiflorum); experiment: Test A preemergence; type: in vivo; details: Lolium multiflorum, pre-emergence, 240 h, preemergence, read-out: Plant response rating, Ryegrass, Italian
In short: as §2

[12] = preemergence, 0 to 100 scale (0 no effect, 100 complete control)
[13] = Preemergence, 0 to 100 scale (0 no effect, 100 complete control)
[14] = preemergence, visual rating after approx. 10 d, 0 to 100 scale where 0 is no effect and 100 is complete control
[15] = preemergence, 0 to 100 scale, 0 = no effect, 100 = complete control
[16] = 125 g ai/ha, visual rating after approx. 10 d, 0 to 100 scale where 0 is no effect and 100 is complete control
[17] = 500 g ai/ha, 0 to 100 scale, 0 = no effect, 100 = complete control

SMILES	pest or weed control at 15.625 g/ha [1]	pest or weed control at 62.5 g/ha [1]	pest or weed control at 250 g/ha [1]	plant injury at 15.625 g/ha [2]	plant injury at 62.5 g/ha [2]	plant injury at 250 g/ha [2]	pest or weed control at 15.625 g/ha [3]	pest or weed control at 62.5 g/ha [3]	pest or weed control at 250 g/ha [3]	pest or weed control at 15.625 g/ha [4]	pest or weed control at 62.5 g/ha [4]	pest or weed control at 250 g/ha [4]	pest or weed control at 15.625 g/ha [5]	pest or weed control at 62.5 g/ha [5]	pest or weed control at 250 g/ha [5]	pest or weed control at 15.625 g/ha [6]	pest or weed control at 62.5 g/ha [6]	pest or weed control at 250 g/ha [6]	other results
CN1C[C@@H](c2ccc(C(F)(F)F)cc2)[C@H](C(=O)Nc2cnccc2C(F)(F)F)C1=O (racemic) [Compound 1401]	0%	20%	50%	0%	0%	50%	0%	60%	70%	0%	0%	30%	0%	0%	30%	0%	20%	30%	
CN1C[C@H](c2cccc(C(C)(C)C#N)c2)[C@@H](C(=O)Nc2cccc(F)c2F)C1=O (racemic) [Compound 1497]	20%	60%	60%	10%	0%	50%	30%	60%	60%	0%	0%	10%	0%	0%	0%	0%	0%	20%	
CN1C[C@@H](c2ccc(C(F)(F)F)cc2)[C@H](C(=O)Nc2ncc(C(F)(F)F)s2)C1=O (racemic) [Compound 1504]	0%	0%	0%	0%	0%	0%	0%	0%	0%	0%	0%	0%	0%	0%	0%	0%	0%	0%	
O=C1NCC(c2ccccc2)C1C(=O)Nc1cc(F)ccc1F (stereo not drawn) [Compound 1359]																			pest or weed control at 500 g/ha [7, 12]: 0%; pest or weed control at 125 g/ha [7, 13]: 0%; pest or weed control at 500 g/ha [8, 12]: 0%; pest or weed control at 125 g/ha [8, 13]: 0%; pest or weed control at 500 g/ha [9, 12]: 0%; pest or weed control at 125 g/ha [9, 13]: 0%; melting point: 147 to 149 °C
CN1C[C@@H](c2ccc(C(F)(F)F)cc2)[C@H](C(=O)Nc2ccnc(Cl)c2Cl)C1=O (racemic) [Compound 1503]	0%	10%	10%	0%	10%	10%	0%	20%	40%	0%	0%	0%	0%	0%	0%	0%	0%	0%	
O=C1NCC(c2ccccc2)C1C(=O)Nc1ccc(C(F)(F)F)cc1 (stereo not drawn) [Compound 1362]																			pest or weed control at 500 g/ha [7, 12]: 0%; pest or weed control at 125 g/ha [7, 13]: 0%; pest or weed control at 500 g/ha [8, 12]: 0%; pest or weed control at 125 g/ha [8, 13]: 0%; pest or weed control at 500 g/ha [9, 12]: 0%; pest or weed control at 125 g/ha [9, 13]: 0%; melting point: 221 to 223 °C
CN1C[C@H](c2ccc(C(F)(F)F)cc2)[C@@H](C(=O)Nc2ccccc2C2CC2)C1=O [Compound 747]																			pest or weed control at 125 g/ha [7, 14]: 0%; pest or weed control at 500 g/ha [7, 15]: 70%; pest or weed control at 125 g/ha [8, 14]: 90%; pest or weed control at 500 g/ha [8, 15]: 90%; pest or weed control at 125 g/ha [9, 14]: 50%; pest or weed control at 500 g/ha [9, 15]: 50%; pest or weed control at 125 g/ha [10, 16]: 20%; pest or weed control at 500 g/ha [10, 17]: 0%; pest or weed control at 125 g/ha [11, 16]: 0%; pest or weed control at 500 g/ha [11, 17]: 60%

From patent US12077503B2, “Substituted cyclic amides and their use as herbicides” (FMC CORPORATION, priority 2015, dated 2024)
